According to US12435060B2, “Acylamino bridged heterocyclic compound, and composition and application thereof” (BEIJING SCITECH-MQ PHARMACEUTICALS LIMITED, priority 2019, dated 2025):

These compounds were tested on HT29 cells (assay: Inhibition of cell necrosis (CCK8 method), induced programmed necrosis of HT29 cells). Conditions: Homo sapiens, HT-29; rescue from necrosis induced by TNF-α 20 ng/mL, AT-406 1 μM, Z-VAD-FMK 20 μM; 16-20 hours; CCK-8, OD 450 nm.
Assay type: cell-based
Outline: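 HT29 cells in McCOY's 5A with 10% FBS were pre-treated for 30 min with compound (9 fourfold steps, 25000 to 0.38 nM final, 0.25% DMSO). Necrosis was then induced with TNF-α 20 ng/mL, AT-406 1 μM and Z-VAD-FMK 20 μM for 16-20 h. Viability was read by CCK-8 OD450, normalized between uninduced and induced wells, and IC50 was curve-fitted.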

| Compound | IC50 |
| --- | --- |
| CC(C)(C)OCCOc1ccc(C(F)(F)F)c(-c2ccnc(NC(=O)c3nnc(Cc4ccccc4F)[nH]3)c2)c1 [Example 292, 5-(2-fluorobenzyl)-N-(4-(5-(2-(tert-butoxy)ethoxy)-2-(trifluoromethyl)phenyl)pyridin-2-yl)-4H-1,2,4-triazole-3-carboxamide] | ≤ 0.1 µM |
| CC(C)(C)OCCOc1ccc(C(F)(F)F)c(-c2ccnc(NC(=O)c3nnc(CC4CCCC4)[nH]3)c2)c1 [Example 293, 5-(cyclopentylmethyl)-N-(4-(5-(2-(tert-butoxy)ethoxy)-2-(trifluoromethyl)phenyl)pyridin-2-yl)-4H-1,2,4-triazole-3-carboxamide] | ≤ 0.1 µM |
| CC(C)(C)OCCOc1ccc(C(F)(F)F)c(-c2ccnc(NC(=O)c3nnc(CC4CCCCC4)[nH]3)c2)c1 [Example 294, 5-(cyclohexylmethyl)-N-(4-(5-(2-(tert-butoxy)ethoxy)-2-(trifluoromethyl)phenyl)pyridin-2-yl)-4H-1,2,4-triazole-3-carboxamide] | ≤ 0.1 µM |
| COCCCOc1ccc(C(F)(F)F)c(-c2ccnc(NC(=O)c3nnc(Cc4ccccc4)[nH]3)c2)c1 [Example 295, 5-benzyl-N-(4-(5-(3-methoxypropoxy)-2-(trifluoromethyl)phenyl)pyridin-2-yl)-4H-1,2,4-triazole-3-carboxamide] | ≤ 0.1 µM |
| COCCCOc1ccc(C(F)(F)F)c(-c2ccnc(NC(=O)c3nnc(Cc4ccccc4F)[nH]3)c2)c1 [Example 296, 5-(2-fluorobenzyl)-N-(4-(5-(3-methoxypropoxy)-2-(trifluoromethyl)phenyl)pyridin-2-yl)-4H-1,2,4-triazole-3-carboxamide] | ≤ 0.1 µM |
| COCCCOc1ccc(C(F)(F)F)c(-c2ccnc(NC(=O)c3nnc(CC4CCCC4)[nH]3)c2)c1 [Example 297, 5-(cyclopentylmethyl)-N-(4-(5-(3-methoxypropoxy)-2-(trifluoromethyl)phenyl)pyridin-2-yl)-4H-1,2,4-triazole-3-carboxamide] | ≤ 0.1 µM |
| COCCCOc1ccc(C(F)(F)F)c(-c2ccnc(NC(=O)c3nnc(CC4CCCCC4)[nH]3)c2)c1 [Example 298, 5-(cyclohexylmethyl)-N-(4-(5-(3-methoxypropoxy)-2-(trifluoromethyl)phenyl)pyridin-2-yl)-4H-1,2,4-triazole-3-carboxamide] | ≤ 0.1 µM |
| O=C(Nc1cc(-c2cc(OCC3CCOCC3)ccc2C(F)(F)F)ccn1)c1nnc(Cc2ccccc2)[nH]1 [Example 299, 5-benzyl-N-(4-(5-((tetrahydro-2H-pyran-4-yl)methoxy)-2-(trifluoromethyl)phenyl)pyridin-2-yl)-4H-1,2,4-triazole-3-carboxamide] | ≤ 0.1 µM |
| O=C(Nc1cc(-c2cc(OCC3CCOCC3)ccc2C(F)(F)F)ccn1)c1nnc(Cc2ccccc2F)[nH]1 [Example 300, 5-(2-fluorobenzyl)-N-(4-(5-((tetrahydro-2H-pyran-4-yl)methoxy)-2-(trifluoromethyl)phenyl)pyridin-2-yl)-4H-1,2,4-triazole-3-carboxamide] | ≤ 0.1 µM |
| O=C(Nc1cc(-c2cc(OCC3CCOCC3)ccc2C(F)(F)F)ccn1)c1nnc(Cc2cccc(F)c2)[nH]1 [Example 301, 5-(3-fluorobenzyl)-N-(4-(5-((tetrahydro-2H-pyran-4-yl)methoxy)-2-(trifluoromethyl)phenyl)pyridin-2-yl)-4H-1,2,4-triazole-3-carboxamide] | ≤ 0.1 µM |
| O=C(Nc1cc(-c2cc(OCC3CCOCC3)ccc2C(F)(F)F)ccn1)c1nnc(Cc2ccc(F)cc2)[nH]1 [Example 302, 5-(4-fluorobenzyl)-N-(4-(5-((tetrahydro-2H-pyran-4-yl)methoxy)-2-(trifluoromethyl)phenyl)pyridin-2-yl)-4H-1,2,4-triazole-3-carboxamide] | ≤ 0.1 µM |
| O=C(Nc1cc(-c2cc(OCC3CCOCC3)ccc2C(F)(F)F)ccn1)c1nnc(CC2CCCC2)[nH]1 [Example 303, 5-(cyclopentylmethyl)-N-(4-(5-((tetrahydro-2H-pyran-4-yl)methoxy)-2-(trifluoromethyl)phenyl)pyridin-2-yl)-4H-1,2,4-triazole-3-carboxamide] | ≤ 0.1 µM |
